Where two headings read alike, the source gives them in different places.
What was measured:
5-HT M-receptor [1] = molecular target: T1, 5-HT M-receptor (Oryctolagus cuniculus, UniProt A0A5F9C9J3); assay: pA2 against 5-HT in the isolated rabbit heart; conditions: negative logarithm of molar antagonist concentration reducing effect of twice the ED50 of 5-HT to that of the ED50
T1 sequence (A0A5F9C9J3 35-494): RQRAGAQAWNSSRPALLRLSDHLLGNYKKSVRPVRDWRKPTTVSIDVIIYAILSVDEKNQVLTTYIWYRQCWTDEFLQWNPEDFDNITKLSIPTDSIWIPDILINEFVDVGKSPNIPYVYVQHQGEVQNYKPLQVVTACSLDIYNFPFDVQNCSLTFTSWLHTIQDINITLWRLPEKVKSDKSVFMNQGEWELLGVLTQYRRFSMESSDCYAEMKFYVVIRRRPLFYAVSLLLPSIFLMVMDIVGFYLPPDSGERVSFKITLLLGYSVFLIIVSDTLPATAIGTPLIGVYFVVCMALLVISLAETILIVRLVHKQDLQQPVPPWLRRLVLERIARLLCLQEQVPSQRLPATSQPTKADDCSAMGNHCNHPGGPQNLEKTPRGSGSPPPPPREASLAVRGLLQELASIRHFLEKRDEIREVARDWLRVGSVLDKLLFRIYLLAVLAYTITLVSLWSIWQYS
Experimental: The activity of the compounds against 5-HT can be assessed by determining their pA2 values in the isolated rabbit heart as described by J.R. Fozard et al Europ. J. Pharmacol. 59, 195-210 (1979). In the method described the molar concentration of antagonist which reduces the effects of twice the ED50 of 5-HT to that of the ED50 in the absence of antagonist is determined. The pA2 value is the negative logarithm of said molar concentrations.

[2] = test system: von Bezold-Jarisch reflex evoked by 5-HT; assay: Antagonism of the von Bezold-Jarisch reflex evoked by 5-HT in the anaesthetised rat; format: in vivo; conditions: iv, anaesthetised male Sprague-Dawley rat, antagonist intravenously; for ED50: dose inhibiting the response to 5-HT (2µg/kg i.v.) by 50%
Text: The activity of the compounds of Formula I against 5-HT can be assessed in vivo by measurement of the effect of the compound on the Von Bezold-Jarisch Reflex induced by 5-HT injected intravenously into the rat (see A.S. Paintal, Physiol. Rev. 53 (159-227), 1973). The transient cardiac slowing results arises from an increased efferent vagus activity arising from stimulation by 5-HT of sensory afferent fibres in and around the heart.
Antagonism of the von Bezold-Jarisch reflex evoked by 5-HT in the anaesthetised rat was measured for N-methyl-4-piperidinyl-3',5'-dimethylbenzoate (Compound A) and N-methyl-3-piperidinyl 3',5'-dimethylbenzoate (Compound B), using the following method: • Male Sprague-Dawley rats weighing 250-300 g are anaesthetized with urethane, 1.25 g/kg injected intraperitoneally and set up for recording blood pressure and heart rate as described in Fozard J.R et al., J. Cardiovasc. Pharmacol. 2, 229-245 (1980). A submaximal dose of 5-HT (2µg/kg) is given repeatedly into the cannulated jugular vein and changes in heart rate quantified. Antagonists are given intravenously and the doses required to just inhibit the response to 5-HT (threshold dose) or to inhibit the response to 5-HT by 50% (ED50) are determined.

5-HT M-receptor [3] = molecular target: T1, 5-HT M-receptor; conditions: 5-HT M-receptor antagonism; values reported in the literature (J.R. Fozard et al., Eur. J. Pharmacol.); cited from earlier work

Row | Molecule | pA2 5-HT (5-HT M-receptor [1]) | ED50 [2] [mg/kg] | pA2 5-HT (5-HT M-receptor [3]) | minimal effective dose ([2]; dose required to just inhibit the response to 5-HT (2µg/kg i.v.), read-out: THRESHOLD DOSE) [mg/kg]
1 | Cc1cc(C)cc(C(=O)OC2CCN(C)CC2)c1 [Compound A, N-Methyl-4-piperidinyl-3',5'-dimethylbenzoate] | 8.1 | 0.136 ± 0.022 | – | –
2 | Cc1cc(C)cc(C(=O)OC2CCCN(C)C2)c1 (stereo not drawn) [Compound B, N-Methyl-3-piperidinyl-3',5'-dimethylbenzoate] | 7.3 | 0.51 ± 0.116 | – | –
3 | CCN(CC)CCNC(=O)c1cc(Cl)c(N)cc1OC [metoclopramide] | – | 0.408 ± 0.0809 | 7.2 | 0.233 ± 0.0663
4 | COC(=O)[C@H]1[C@@H](OC(=O)c2ccccc2)C[C@@H]2CC[C@H]1N2 [nor(-)cocaine] | – | – | 7.7 | –
5 | tropyl benzoate | – | – | 7.2 | –
